The values below come from PubChem BioAssay AID1919004 (Molecular Pharmacology Branch, DTP, NCI, 2023).

The structures appear in SMILES notation. Where “and” joins values, the source holds several entries; their conditions need not be identical. Equal entries are not always repeated.

The assay deals with 883617-216-R-J1-PDC complex spheroids, growth, % test/control. Description: Anticancer human tumor 883617-216-R-J1-PDC patient-derived bladder carcinoma cell line growth inhibition [AhR]. The note with it: for viability, T/C: stronger effect = lower value. From the text:
Multicellular complex tumor spheroid response to aryl hydrocarbon receptor antagonists in combination with a variety of drugs and investigational agents in selected tumor cell lines
The current study was undertaken to assess response to aryl hydrocarbon receptor antagonists in combination with standard-of-care drugs and investigational agents in solid tumor complex spheroid models. Complex spheroids include a stromal component modeled by human endothelial cells (HUVEC) and fibroblasts modeled by human mesenchymal stem cells (MSCs). The concentration ranges selected for each drug and investigational agent were based upon clinically achievable concentrations if the clinical Cmax of the agent was known.
Compounds. The drugs and investigational agents: BAY 2416964 (NSC825713), GNF351 (NSC835774), CH-223191 (NSC835775), CPI-455 (NSC825282), aza-TdCyd (NSC777586), decitabine (NSC127716), belinostat (NSC758774), entinostat (NSC756642), pevonedistat (NSC761192), tazemetostat (NSC777109), talazoparib (NSC765396), olaparib (NSC753686), selinexor (NSC780203), nedisertib (M3814, NSC802822), bortezomib (NSC756655), venetoclax (NSC766270), doxorubicin (NSC123127), elimusertib (BAY189344, NSC800525), ceralasertib (AZD6738, NSC777638), TAK-243 (NSC785004), alisertib (NSC759677), etoposide (NSC141540), topotecan (NSC609699), eribulin (NSC707389), gemcitabine (NSC613327), carboplatin (NSC241240), cisplatin (NSC119875), and SN-38 (NSC673596) were obtained from the National Cancer Institute (NCI) Developmental Therapeutics Program Chemical Repository (32). The FDA-approved anticancer drug set is available from the Developmental Therapeutics Program at https://dtp.cancer.gov/organization/dscb/obtaining/available plates.htm. […] The stock solutions were prepared in dimethyl sulfoxide (DMSO, Sigma-Aldrich, St. Louis, MO, cat. D2650), except for the platinum compounds which were prepared in saline (Quality Biological, Gaithersburg, MD, cat. 114-055-101), at 800-fold the tested concentration and stored at -70 degrees C prior to their use. All drugs and investigational agents were tested over a range starting from a high concentration at or near the clinical Cmax and decreasing in half-log increments. If the clinical Cmax for an agent had not been determined, the highest concentration tested was 10 microM (Table 1).
Cell Culture. All cells were maintained in an incubator at 37 degrees C and 5% CO2 with 95% humidity. The PDC lines were cultured according to standard operating procedures established by the NCI PDMR (https://pdmr.cancer.gov). Briefly, all PDCs were thawed and cultured in Matrigel-coated flasks prepared with a working solution of 1X Ham's F-12 nutrient mix, without supplementation (Invitrogen, Waltham, MA, cat. 11765054), 100 U/mL penicillin-streptomycin (Invitrogen, cat. 15140122), and 2.5% Matrigel (Corning Inc., Corning, NY, cat. 354248) for the first three passages. All PDCs were cultured in complete DMEM/F-12 media containing advanced DMEM/F-12 (Invitrogen, cat. 12634028), 4.9% defined fetal bovine serum, heat inactivated (HyClone Laboratories Inc., Logan, UT, cat. SH30070.03HI), 389 ng/mL hydrocortisone (Sigma-Aldrich, cat. H4001), 9.7 ng/mL human EGF recombinant protein (Invitrogen, cat. PHG0313), 23.4 microg/mL adenine (Sigma-Aldrich, cat. A2786), 97.3 U/mL penicillin-streptomycin (Invitrogen, cat. 15140122), 1.9 mM L-glutamine (Invitrogen, cat. 25030081), and 9.7 microM Y-27632 dihydrochloride (Tocris Bioscience, Bristol, United Kingdom, cat. 1254). The PDCs were cultured in complete DMEM/F12 media without 10 microM Y-27632 dihydrochloride for at least two passages prior to the screen. The established cell lines NCI-H1341 and […] were cultured in DMEM/F-12, HEPES (Invitrogen, cat. 11330032), 5% defined fetal bovine serum (HyClone Laboratories Inc., cat. SH30070.03), ITS premix universal culture supplement [insulin (5 microg/mL), transferrin (5 microg/mL), and selenious acid (5 ng/mL)] […]
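Note: exposure lasted 7 days after dosing on day 3 of spheroid growth.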

`CC(C)c1c(-c2ccccc2)nc2c(C#N)c[nH]n2c1=O`: the viability, T/C runs as follows: (compound 0.0316 µM) 101% and 93.4% and 95%; (compound 0.1 µM) 107% and 97.3% and 110%; (compound 0.316 µM) 109% and 96% and 82.6%; (compound 1 µM) 98.6% and 98% and 68.8%; (compound 3.16 µM) 110% and 100% and 82.2%; (compound 10 µM) 105% and 102% and 77.7%. Further, under “curve of compound”, the IC50 is > 10 µM.
In the case of `CC(CO)NC(=O)c1cc(-c2ccc(Cl)cc2)nn(-c2cnn(C)c2)c1=O` (centres undefined), where the note is “compound alone, run of 05/31/2022”, the IC50 is > 10 µM.
Turning to `CC1(C)CCC(CN2CCN(c3ccc(C(=O)NS(=O)(=O)c4ccc(NCC5CCOCC5)c([N+](=O)[O-])c4)c(Oc4cnc5[nH]ccc5c4)c3)CC2)=C(c2ccc(Cl)cc2)C1`, the viability, T/C reads like this: (compound 0.0316 µM) 97.3% and 96.7% and 85.8%; (compound 0.1 µM) 105% and 106% and 130%; (compound 0.316 µM) 101% and 98.7% and 110%; (compound 1 µM) 101% and 98.4% and 92.5%; (compound 3.16 µM) 99.6% and 105% and 72.3%; (compound 10 µM) 30.6% and 64.7% and 33.8%. For the same compound, the IC50 (curve of compound) is 7.23 µM and > 10 µM and 6.07 µM.
Turning to `CC1COCCN1c1cc(C2(S(C)(=N)=O)CC2)nc(-c2ccnc3[nH]ccc23)n1` (centres undefined), the viability, T/C reads like this: (compound 0.0316 µM) 99.7% and 109% and 114%; (compound 0.1 µM) 97.4% and 97.5% and 101%; (compound 0.316 µM) 106% and 101% and 71.2%; (compound 1 µM) 88.5% and 99.6% and 63.6%; (compound 3.16 µM) 76% and 80.4% and 89.1%; (compound 10 µM) 48.9% and 56.1% and 102%. Further, for the setting “curve of compound”, the IC50 is 9.6 µM and > 10 µM.
As to `COc1cc(Nc2ncc3c(n2)-c2ccc(Cl)cc2C(c2c(F)cccc2OC)=NC3)ccc1C(=O)O`, the viability, T/C reads like this: (compound 0.0316 µM) 88.6% and 85% and 80.8%; (compound 0.1 µM) 78.9% and 73.3% and 119%; (compound 0.316 µM) 75.5% and 72% and 97.8%; (compound 1 µM) 74.1% and 70.4% and 84.2%; (compound 3.16 µM) 71.2% and 71% and 109%; (compound 10 µM) 72.2% and 65.5% and 117%. Moreover, the IC50 (curve of compound) was > 10 µM.
Consider `COc1ccc([C@@H](O)c2cc(-c3ncnc4cc(N5CCOCC5)ccc34)c(F)cc2Cl)nn1`, for which the viability, T/C is 110% and 102% and 97.7% (compound 0.0316 µM); 110% and 106% and 123% (compound 0.1 µM); 86.4% and 91.7% and 70% (compound 0.316 µM); 69.8% and 77.5% and 73.8% (compound 1 µM); 54.8% and 51.5% and 64.2% (compound 3.16 µM); 36.5% and 39.1% and 48.6% (compound 10 µM). Also, under “curve of compound”, the IC50 is 3.72 µM and 3.86 µM and > 10 µM.
Regarding `Cc1ccccc1N=Nc1ccc(NC(=O)c2ccnn2C)c(C)c1`, the viability, T/C (compound 0.1 µM) is 90.3% [middle of 20 runs]; the viability, T/C (compound 0.316 µM) is 84.6% [middle of 20 runs]; the viability, T/C (compound 1 µM) was 84.5% [middle of 19 runs]; the viability, T/C (compound 3.16 µM) was 77% [middle of 20 runs]; the viability, T/C (compound 10 µM) was 77% [middle of 21 runs]. Where the note is “compound alone, run of 06/14/2022”, the IC50 was > 10 µM.
As to `Cc1cncc(-c2nc(NCCc3c[nH]c4ccccc34)c3ncn(C(C)C)c3n2)c1`, the viability, T/C runs as follows: (compound 0.1 µM) 88.2% [middle of 19 runs]; (compound 1 µM) 95.8% [middle of 20 runs]; (compound 10 µM) 51.4% [middle of 21 runs].
As to `NS(=O)(=O)OCC1CC(n2ccc3c(NC4CCc5ccccc54)ncnc32)CC1O` (centres undefined), the viability, T/C reads like this: (compound 0.0316 µM) 154% and 163% and 90.4%; (compound 0.1 µM) 209% and 200% and 81.5%; (compound 0.316 µM) 214% and 242% and 83.6%; (compound 1 µM) 140% and 130% and 64%; (compound 3.16 µM) 48.6% and 34.8% and 33.6%; (compound 10 µM) 24.7% and 20.3% and 48.3%. Further, the concentration for half-maximal inhibition (IC50) (curve of compound) is 3.12 µM and 2.45 µM and 2.01 µM.
In the case of `Nc1ccccc1NC(=O)c1ccc(CNC(=O)OCc2cccnc2)cc1`, the viability, T/C by setting is: (compound 0.0316 µM) 96.9% and 100% and 89.9%; (compound 0.1 µM) 102% and 111% and 88.5%; (compound 0.316 µM) 86.1% and 82.7% and 81.7%; (compound 1 µM) 52.8% and 62.3% and 78.8%; (compound 3.16 µM) 20% and 24.2% and 63.7%; (compound 10 µM) 0.83% and 1.59% and 18.8%. For the same compound, the IC50 (curve of compound) was 1.15 µM and 1.39 µM and 4.4 µM.
Take `Nc1ccn(C2OC(CO)C(O)C2(F)F)c(=O)n1` (centres undefined): the viability, T/C (compound 0.0316 µM) is 28.9% and 105% and 26.2%; the viability, T/C (compound 0.1 µM) is 28.2% and 135% and 27.1%; the viability, T/C (compound 0.316 µM) was 32% and 64% and 25.9%; the viability, T/C (compound 1 µM) is 37% and 80.2% and 30.9%; the viability, T/C (compound 3.16 µM) was 40.3% and 118% and 35.9%; the viability, T/C (compound 10 µM) was 37.1% and 79.3% and 35.7%.
Consider `O=C(C=Cc1cccc(S(=O)(=O)Nc2ccccc2)c1)NO`, for which the viability, T/C is 107% and 95.8% and 72.5% (compound 0.0316 µM); 112% and 96.7% and 77.7% (compound 0.1 µM); 92.8% and 76% and 74.6% (compound 0.316 µM); 68.9% and 73.4% and 93.9% (compound 1 µM); 40.8% (2×) and 35.7% (compound 3.16 µM); 2.89% and 2.67% and 2.49% (compound 10 µM). Under “curve of compound”, the IC50 is 2.13 µM and 2.25 µM and 2.17 µM.
`O=C(c1cc(Cc2n[nH]c(=O)c3ccccc23)ccc1F)N1CCN(C(=O)C2CC2)CC1`: the viability, T/C by setting is: (compound 0.0316 µM) 101% and 100% and 93%; (compound 0.1 µM) 89.1% and 106% and 100%; (compound 0.316 µM) 95.9% and 94.9% and 112%; (compound 1 µM) 85.9% and 97.1% and 102%; (compound 3.16 µM) 88% and 93.1% and 105%; (compound 10 µM) 70.5% and 76.4% and 105%. Where the note is “curve of compound”, the IC50 was > 10 µM.

Broadly, the viability, T/C is the result in the treated group divided by that in the control group, in per cent. Broadly, the IC50 is the midpoint of a concentration-inhibition curve.
